Results published in US20190134005A1 (BioMarin Pharmaceutical Inc., priority 2016, published 2019).

Target: T1, human CGT (Homo sapiens, UniProt Q16880)
T1 sequence (Q16880 21-541): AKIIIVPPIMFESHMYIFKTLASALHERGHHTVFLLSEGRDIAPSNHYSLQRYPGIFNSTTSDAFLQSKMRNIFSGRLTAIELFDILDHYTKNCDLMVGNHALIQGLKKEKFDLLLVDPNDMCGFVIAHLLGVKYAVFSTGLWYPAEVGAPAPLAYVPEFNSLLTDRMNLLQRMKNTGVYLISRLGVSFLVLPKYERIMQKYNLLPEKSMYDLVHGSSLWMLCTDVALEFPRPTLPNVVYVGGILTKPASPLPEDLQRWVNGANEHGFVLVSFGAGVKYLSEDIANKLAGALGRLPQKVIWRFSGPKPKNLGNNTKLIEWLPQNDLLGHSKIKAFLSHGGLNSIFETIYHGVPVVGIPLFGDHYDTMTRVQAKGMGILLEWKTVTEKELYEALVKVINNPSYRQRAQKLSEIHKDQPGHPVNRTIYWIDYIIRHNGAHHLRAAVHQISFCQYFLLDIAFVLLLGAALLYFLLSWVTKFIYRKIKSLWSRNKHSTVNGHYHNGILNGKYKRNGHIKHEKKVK
Assay: CGT Enzyme Assay (Biological Example 2, RapidFire/MS/MS method with 0.01% Tween 80 added)
Assay type: biochemical
Settings: enzymatic assay, CHO/CGT lysate
Experimental: Full-length human CGT cDNA was cloned into the BamH1/Xho1 site of pcDNA3.1 (+) mammalian expression vector (V90-20, Invitrogen, Carlsbad, Calif.) and the plasmid was transfected into Chinese hamster ovary (CHO) cells. Lysate was prepared using M-PER (Mammalian Protein Extraction Reagent, ThermoFisher Scientific, Grand Island, N.Y.) in the presence of a protease inhibitor cocktail (P8340, Sigma, Saint Louis, Mo.). Each 100 mm dish (100% confluent, approximately 1×10^7 cells) was lysed with 250 μL of M-PER containing protease inhibitors. Protein concentration was determined using a Pierce BCA protein assay kit (ThermoFisher Scientific). […] The final concentration of DMSO was 0.5% in both compound-treated and mock-treated samples. Each individual reaction was diluted with 80 μL of methanol:acetronitrile (1:3) containing 5 μM N-docdecanoyl-NBD-galactosylceramide (internal standard) to stop the reaction. 200 μL H2O:acetonitile (1:1) was added to precipitate the protein. After sufficient mixing, the plates were centrifuged at 2469 g for 38 minutes, 200 μl of supernatant was transferred to a LC-MS 96-deep well plate and a second spin was performed at 2469 g for 10 minutes. The final supernatant was injected in triplicate for RapidFire/MS/MS analysis.
The quantitative analysis of C6-NBD-dihydro-ceramide and C6-NBD-dihydro-galactosylceramide was performed on a Rapid Fire 360 high-throughput mass spectrometry system (Agilent Technologies, Palo Alto, Calif.) coupled with a API4000^+ triple quadrupole mass spectrometer (Applied Biosystems, Concord, Ontario, Canada). RapidFire software packages, including RapidFire Control panel, RapidFire UI and RapidFire Integrator (Agilent Technologies), were used to control the RapidFire instrument and to process data. Analyst 1.6.2 software packages (Applied Biosystems) were used to control the MS system and acquire MS data. 10 μL of sample was loaded on a micro-scale C4 solid-phase extraction (SPE) cartridge (Agilent Technologies) and salts were removed using water supplemented with 0.1% formic acid at the flow rate of 1.5 mL/min for 3 sec. C6-NBD-dihydro-ceramide and C6-NBD-dihydro-galactosylceramide were co-eluted into the mass spectrometer using acetonitrile containing 0.1% formic acid at the flow rate of 1.0 mL/min for 3 sec. The total cycle time of one injection was 8 secs. The MS/MS detection was performed in ESI negative mode.
The C6-NBD-dihydro-galactosylceramide reading was normalized first by dividing the peak area of C6-NBD-dihydro-galactosylceramide by the peak area of the internal standard, N-docdecanoyl-NBD-galactosylceramide.

Row | Structure (SMILES) | IC50 [µM]
1 | CC[C@@]1(C)[C@@H](c2cccc(OC(F)(F)F)c2)N(c2ccc(Cl)cc2)C(=O)N1c1ccc(Cl)cc1 [Example 19-4, (4S,5R)-1,3-bis(4-chlorophenyl)-4-ethyl-4-methyl-5-(3-(trifluoromethoxy)phenyl)imidazolidin-2-one] | 1 to 10
2 | CC1(C)[C@H](c2cccc(OC(F)(F)F)c2)N(c2ccc(C(F)(F)F)cc2)C(=O)N1c1ccc(C(F)(F)F)cc1 [Example 20-2, (S)-4,4-dimethyl-5-(3-(trifluoromethoxy)phenyl)-1,3-bis(4-(trifluoromethyl)phenyl)imidazolidin-2-one] | 10 to 30
3 | Cc1ccc(N2C(=O)N(c3ccc(C)cc3)C(C)(C)[C@H]2c2cccc(OC(F)(F)F)c2)cc1 [Example 21-1, (R)-4,4-dimethyl-1,3-di-p-tolyl-5-(3-(trifluoromethoxy)phenyl)imidazolidin-2-one] | 1 to 10
4 | CCC[C@@]1(C)[C@H](c2cccc(OC(F)(F)F)c2)N(c2ccc(Cl)cc2)C(=O)N1c1ccc(Cl)cc1 [Example 22-5, (4S,5S)-1,3-bis(4-chlorophenyl)-4-methyl-4-propyl-5-(3-(trifluoromethoxy)phenyl)imidazolidin-2-one] | 10 to 30
5 | O=C1N(c2ccc(Cl)cc2)[C@H]2CCC[C@@]2(c2cccc(OC(F)F)c2)N1c1ccc(Cl)cc1 [Example 23-1, (3aS,6aS)-1,3-bis(4-chlorophenyl)-3a-(3-(difluoromethoxy)phenyl)hexahydrocyclopenta[d]imidazol-2(1H)-one] | 10 to 30
6 | O=C1N(c2ccc(Cl)cc2)[C@@H]2CCC[C@]2(c2cccc(OC(F)F)c2)N1c1ccc(Cl)cc1 [Example 23-2, (3aR,6aR)-1,3-bis(4-chlorophenyl)-3a-(3-(difluoromethoxy)phenyl)hexahydrocyclopenta[d]imidazol-2(1H)-one] | 10 to 30
7 | CC1(C)[C@H](c2cccc(C#N)c2)N(c2ccc(C(F)(F)F)cc2)C(=O)N1c1ccc(C(F)(F)F)cc1 [Example 24-2, (S)-3-(5,5-dimethyl-2-oxo-1,3-bis(4-(trifluoromethyl)phenyl)imidazolidin-4-yl)benzonitrile] | 10 to 30
8 | C[C@]1(C(F)(F)F)[C@@H](c2cccc(OC(F)(F)F)c2)N(c2ccc(Cl)cc2)C(=O)N1c1ccc(Cl)cc1 [Example 25-2] | 1 to 10
9 | CC1(C)[C@@H](c2cccc(OC(F)(F)F)c2)N(c2ccccc2)C(=O)N1c1ccccc1 [Example 26-1, (R)-4,4-dimethyl-1,3-diphenyl-5-(3-(trifluoromethoxy)phenyl)imidazolidin-2-one] | 10 to 30
10 | CC1(C)[C@H](c2cccc(OC(F)(F)F)c2)N(c2ccccc2)C(=O)N1c1ccccc1 [Example 26-2, (S)-4,4-dimethyl-1,3-diphenyl-5-(3-(trifluoromethoxy)phenyl)imidazolidin-2-one] | 1 to 10
11 | C[C@@]1(C(F)(F)F)[C@H](c2cccc(C#N)c2)N(c2ccc(Cl)cc2)C(=O)N1c1ccc(Cl)cc1 [Example 27-1, 3-((4S,5S)-1,3-bis(4-chlorophenyl)-5-methyl-2-oxo-5-(trifluoromethyl)imidazolidin-4-yl)benzonitrile] | 10 to 30
12 | CC1(C)[C@@H](c2cccc(OC(F)(F)F)c2)N(c2cccc(Cl)c2)C(=O)N1c1cccc(Cl)c1 [Example 28-1, (R)-1,3-bis(3-chlorophenyl)-4,4-dimethyl-5-(3-(trifluoromethoxy)phenyl)imidazolidin-2-one] | 10 to 30
13 | N#Cc1cccc([C@H]2N(c3ccc(Cl)cc3)C(=O)N(c3ccc(Cl)cc3)C23COC3)c1 [Example 30-1, (R)-3-(5,7-bis(4-chlorophenyl)-6-oxo-2-oxa-5,7-diazaspiro[3.4]octan-8-yl)benzonitrile] | 10 to 30
14 | O=C1N(c2ccc(Cl)cc2)C2CCOC[C@]2(c2cccc(OC(F)(F)F)c2)N1c1ccc(Cl)cc1 (stereo partly drawn) [Example 31-1, (3aR)-1,3-bis(4-chlorophenyl)-3a-(3-(trifluoromethoxy)phenyl)hexahydropyrano[3,4-d]imidazol-2(3H)-one] | 10 to 30
15 | Cc1ccc(N2C(=O)N(c3ccc(C)cc3)C3(COC3)[C@H]2c2cccc(C#N)c2)cc1 [Example 32-1, (R)-3-(6-oxo-5,7-di-p-tolyl-2-oxa-5,7-diazaspiro[3.4]octan-8-yl)benzonitrile] | 10 to 30
16 | Cc1ccc(N2C(=O)N(c3ccc(C)cc3)C3(COC3)[C@@H]2c2cccc(C#N)c2)cc1 [Example 32-2, (S)-3-(6-oxo-5,7-di-p-tolyl-2-oxa-5,7-diazaspiro[3.4]octan-8-yl)benzonitrile] | < 1

More lines, now with the values ahead:

Row | IC50 [µM] | Structure (SMILES)
17 | < 1 | CC[C@@]1(C)[C@H](c2cccc(OC(F)(F)F)c2)N(c2ccc(Cl)cc2)C(=O)N1c1ccc(Cl)cc1 [Example 19-3, (4S,5S)-1,3-bis(4-chlorophenyl)-4-ethyl-4-methyl-5-(3-(trifluoromethoxy)phenyl)imidazolidin-2-one]
18 | < 1 | CC1(C)[C@@H](c2cccc(OC(F)(F)F)c2)N(c2ccc(C(F)(F)F)cc2)C(=O)N1c1ccc(C(F)(F)F)cc1 [Example 20-1, (R)-4,4-dimethyl-5-(3-(trifluoromethoxy)phenyl)-1,3-bis(4-(trifluoromethyl)phenyl)imidazolidin-2-one]
19 | < 1 | Cc1ccc(N2C(=O)N(c3ccc(C)cc3)C(C)(C)[C@@H]2c2cccc(OC(F)(F)F)c2)cc1 [Example 21-2, (S)-4,4-dimethyl-1,3-di-p-tolyl-5-(3-(trifluoromethoxy)phenyl)imidazolidin-2-one]
20 | < 1 | CCC[C@]1(C)[C@@H](c2cccc(OC(F)(F)F)c2)N(c2ccc(Cl)cc2)C(=O)N1c1ccc(Cl)cc1 [Example 22-2, (4R,5R)-1,3-bis(4-chlorophenyl)-4-methyl-4-propyl-5-(3-(trifluoromethoxy)phenyl)imidazolidin-2-one]
21 | < 1 | CCC[C@]1(C)[C@H](c2cccc(OC(F)(F)F)c2)N(c2ccc(Cl)cc2)C(=O)N1c1ccc(Cl)cc1 [Example 22-3, (4R,5S)-1,3-bis(4-chlorophenyl)-4-methyl-4-propyl-5-(3-(trifluoromethoxy)phenyl)imidazolidin-2-one]
22 | < 1 | CC1(C)[C@@H](c2cccc(C#N)c2)N(c2ccc(C(F)(F)F)cc2)C(=O)N1c1ccc(C(F)(F)F)cc1 [Example 24-1, (R)-3-(5,5-dimethyl-2-oxo-1,3-bis(4-(trifluoromethyl)phenyl)imidazolidin-4-yl)benzonitrile]
23 | < 1 | C[C@@]1(C(F)(F)F)[C@H](c2cccc(OC(F)(F)F)c2)N(c2ccc(Cl)cc2)C(=O)N1c1ccc(Cl)cc1 [Example 25-1]
24 | < 1 | C[C@]1(C(F)(F)F)[C@@H](c2cccc(C#N)c2)N(c2ccc(Cl)cc2)C(=O)N1c1ccc(Cl)cc1 [Example 27-2, 3-((4R,5R)-1,3-bis(4-chlorophenyl)-5-methyl-2-oxo-5-(trifluoromethyl)imidazolidin-4-yl)benzonitrile]
25 | < 1 | CC1(C)[C@H](c2cccc(OC(F)(F)F)c2)N(c2cccc(Cl)c2)C(=O)N1c1cccc(Cl)c1 [Example 28-2, (S)-1,3-bis(3-chlorophenyl)-4,4-dimethyl-5-(3-(trifluoromethoxy)phenyl)imidazolidin-2-one]
26 | < 1 | N#Cc1cccc([C@@H]2N(c3ccc(Cl)cc3)C(=O)N(c3ccc(Cl)cc3)C23COC3)c1 [Example 30-2, (S)-3-(5,7-bis(4-chlorophenyl)-6-oxo-2-oxa-5,7-diazaspiro[3.4]octan-8-yl)benzonitrile]
27 | < 1 | O=C1N(c2ccc(Cl)cc2)C2CCOC[C@@]2(c2cccc(OC(F)(F)F)c2)N1c1ccc(Cl)cc1 (stereo partly drawn) [Example 31-2, (3aS)-1,3-bis(4-chlorophenyl)-3a-(3-(trifluoromethoxy)phenyl)hexahydropyrano[3,4-d]imidazol-2(3H)-one]
